Measured values as given in patent EP3539977B1, “ENZYMES WITH CHLOROGENIC ACID ESTERASE ACTIVITY AND FERULOYL ESTERASE ACTIVITY” (SternEnzym GmbH & Co. KG, priority 2014, dated 2016).
“And” between values parts separate entries of the source, which are not always exact repeats. Equal entries are not always repeated.

What was measured:
UmChlE [1] = molecular target: T1, UmChlE (Mycosarcoma maydis, UniProt A0A060S684, P492L); assay type: biochemical, Ustilago maydis; conditions: buffer (Tris pH 7.5) / organic solvent 1:1 (v/v), 0.7 mM methyl ferulate, 1 h, 37 °C, 900 rpm; without solvent = 100 %; standard error in parentheses; ND = activity not detectable
T1 construct: purification of the chlorogenic acid esterase UmChlE from culture supernatant of U. maydis was accomplished by three complementary separation steps; made in house; host or cells: Ustilago maydis itself (native producer), culture supernatant; Q Sepharose FF, preparative IEF, polyamide column
T1 sequence (A0A060S684 22-585, stated change not applied): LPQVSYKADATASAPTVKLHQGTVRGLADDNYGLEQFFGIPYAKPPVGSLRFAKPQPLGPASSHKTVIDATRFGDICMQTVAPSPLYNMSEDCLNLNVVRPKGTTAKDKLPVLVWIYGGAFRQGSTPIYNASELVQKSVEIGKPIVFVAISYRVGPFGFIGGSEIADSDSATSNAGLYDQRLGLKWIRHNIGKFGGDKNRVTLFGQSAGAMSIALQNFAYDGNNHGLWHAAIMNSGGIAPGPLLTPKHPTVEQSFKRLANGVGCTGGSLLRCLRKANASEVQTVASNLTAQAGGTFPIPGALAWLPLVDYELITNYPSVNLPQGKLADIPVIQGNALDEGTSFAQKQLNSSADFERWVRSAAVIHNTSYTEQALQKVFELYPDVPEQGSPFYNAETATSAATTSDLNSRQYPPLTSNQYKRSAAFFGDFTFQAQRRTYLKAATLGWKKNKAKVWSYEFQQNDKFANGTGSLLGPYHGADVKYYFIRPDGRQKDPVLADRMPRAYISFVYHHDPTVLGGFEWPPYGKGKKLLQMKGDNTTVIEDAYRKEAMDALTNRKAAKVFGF
Procedure: Chlorogenic acid esterase activity was determined at 37 °C in 50 mM Tris buffer at pH 7.5 using chlorogenic acid and methyl ferulate as standard substrates, unless otherwise stated. The release of the corresponding free acids was analyzed with HPLC-UV. If appropriate, the hydrolysis of other benzoic and cinnamic acid ester derivatives as well as feruloylated saccharides was measured with the same method. After incubation for one hour the reaction was terminated by doubling the reacting volume with acetonitrile. Samples were centrifuged (15 min, 15.000 × g) before injection to the HPLC (Chromolith Performance RP-18e reverse-phase column, 100 × 4.6 mm, Merck, Darmstadt, Germany). […] Substance elution was detected at 232 nm (benzoic and 3-hydroxybenzoic acid), 254 nm (4-hydroxybenzoic and vanillic acid), 275 nm (cinnamic and gallic acid), 306 nm (p-coumaric acid) and 323 nm (ferulic, caffeic, chlorogenic and sinapic acid) using a Shimadzu UV-Vis detector (SPD-10A VP, Shimadzu Deutschland GmbH, Duisburg, Germany). One unit of enzyme activity was defined as the amount of enzyme releasing one µmοl of free acid per minute under the specified conditions. All measurements were performed at least twice. […]

UmChlE [2] = molecular target: T1, UmChlE; assay type: biochemical, Ustilago maydis; conditions: 1 mM (or 1.95 mM) substrate, 1 h, 37 °C, 50 mM Tris pH 7.5; ND = activity not detectable
Procedure: (§1) Chlorogenic acid esterase activity was determined at 37 °C in 50 mM Tris buffer at pH 7.5 using chlorogenic acid and methyl ferulate as standard substrates, unless otherwise stated. The release of the corresponding free acids was analyzed with HPLC-UV. If appropriate, the hydrolysis of other benzoic and cinnamic acid ester derivatives as well as feruloylated saccharides was measured with the same method. After incubation for one hour the reaction was terminated by doubling the reacting volume with acetonitrile. Samples were centrifuged (15 min, 15.000 × g) before injection to the HPLC (Chromolith Performance RP-18e reverse-phase column, 100 × 4.6 mm, Merck, Darmstadt, Germany). […] Substance elution was detected at 232 nm (benzoic and 3-hydroxybenzoic acid), 254 nm (4-hydroxybenzoic and vanillic acid), 275 nm (cinnamic and gallic acid), 306 nm (p-coumaric acid) and 323 nm (ferulic, caffeic, chlorogenic and sinapic acid) using a Shimadzu UV-Vis detector (SPD-10A VP, Shimadzu Deutschland GmbH, Duisburg, Germany). One unit of enzyme activity was defined as the amount of enzyme releasing one µmοl of free acid per minute under the specified conditions. All measurements were performed at least twice.
Substrate specificity of the UmChlE was determined towards different cinnamate and benzoate esters as well as natural substrates, such as F-A, F-AX and F-AXG, with activity assays as described above. Three mM stock solutions of all substrates were prepared in water.
Purified UmChlE was incubated with 1 mM, or, in a further experiment, 1.95 mM of different substrates for 1 h (at 37 °C, 50 mM Tris buffer pH 7.5). Relative enzyme activities were calculated based on the most preferred substance of the UmChIE: chlorogenic acid which was set to 100 %. Numbers in parentheses are the estimates of the standard error.

RsChlE = molecular target: T2, RsChlE (Rhizoctonia solani, UniProt A0A1D0BQV8); experiment: Substrate specificity of purified RsChlE; assay type: biochemical; conditions: 1 mM (or 1.95 mM) substrate, 1 h, 30 °C, 50 mM Bis-Tris pH 6.0
T2 sequence (A0A1D0BQV8 39-563): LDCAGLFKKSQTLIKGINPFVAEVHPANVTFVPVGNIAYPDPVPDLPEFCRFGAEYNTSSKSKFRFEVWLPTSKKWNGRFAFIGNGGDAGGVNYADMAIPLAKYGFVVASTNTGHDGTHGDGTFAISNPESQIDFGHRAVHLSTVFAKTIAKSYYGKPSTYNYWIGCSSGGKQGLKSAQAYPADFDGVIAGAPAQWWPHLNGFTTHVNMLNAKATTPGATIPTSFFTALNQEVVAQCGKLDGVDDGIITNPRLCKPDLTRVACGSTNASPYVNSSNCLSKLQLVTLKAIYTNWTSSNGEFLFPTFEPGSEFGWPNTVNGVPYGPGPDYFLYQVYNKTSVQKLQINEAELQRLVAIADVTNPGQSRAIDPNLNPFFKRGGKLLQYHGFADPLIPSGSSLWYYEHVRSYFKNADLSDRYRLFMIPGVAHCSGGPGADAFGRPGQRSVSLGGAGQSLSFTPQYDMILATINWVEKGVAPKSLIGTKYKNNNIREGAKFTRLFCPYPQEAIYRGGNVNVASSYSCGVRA
Procedure: as §1
After purification of the recombinant RsChlE from the culture supernatant of Pichia pastoris with Ni-NTA, the enzyme was biochemically characterized. The experiments were performed like for UmChlE. pH and temperature optimums were analyzed. […] Table 4: Substrate specificity of purified RsChIE.
Purified RsChlE was incubated with 1 mM, or in an alternative experiment, 1.95 mM of different substrates for 1 h (at 30 °C, 50 mM Bis-Tris buffer pH 6.0). […] Numbers in parentheses are the estimates of the standard error.

[3] = test system: FAE of Penicillium expansum; conditions: literature (42); cited from earlier work
UmChlE [4] = molecular target: T1, UmChlE; experiment: Kinetic parameters of UmChlE from initial hydrolysis rates; assay type: biochemical, Ustilago maydis; conditions: 0.005 - 1 mM substrate, 60 min, 37 °C, pH 7.5
Procedure: Km and vmax values were calculated with non-linear regression using SigmaPlot 10.0 (Systat Software Inc., Chicago, USA). Blanks were carried out for all assays using water instead of enzyme. For calculation of kcat the molecular mass was determined using denaturing SDS-PAGE.
Kinetic properties were determined from initial hydrolysis rates for the most preferred substrates chlorogenic acid, MFA and MpCA. […] Consequently, the catalytic efficiency (kca/Km), a good indicator for enzyme efficiency and specificity, was better for chlorogenic acid than for the two synthetic substrates.

[5] = molecular target: T3, chlorogenic acid hydrolases from A. niger (Aspergillus niger, UniProt A7YN26); conditions: literature (13, 14); cited from earlier work
T3 sequence (A7YN26 19-512): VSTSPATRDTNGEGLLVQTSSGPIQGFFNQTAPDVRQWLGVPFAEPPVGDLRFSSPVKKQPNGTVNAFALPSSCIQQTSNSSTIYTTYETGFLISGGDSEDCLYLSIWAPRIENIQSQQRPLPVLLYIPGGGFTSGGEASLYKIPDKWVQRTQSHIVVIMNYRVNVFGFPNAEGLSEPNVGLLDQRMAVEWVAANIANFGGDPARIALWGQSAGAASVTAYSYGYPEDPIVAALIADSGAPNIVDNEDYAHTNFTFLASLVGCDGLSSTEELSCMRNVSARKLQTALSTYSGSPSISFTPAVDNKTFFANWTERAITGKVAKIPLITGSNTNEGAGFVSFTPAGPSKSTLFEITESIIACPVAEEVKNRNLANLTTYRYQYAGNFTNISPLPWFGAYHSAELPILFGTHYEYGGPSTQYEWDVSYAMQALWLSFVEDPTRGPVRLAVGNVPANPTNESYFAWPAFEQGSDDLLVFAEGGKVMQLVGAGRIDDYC

[6] = test system: second published chlorogenic acid hydrolases from A. niger; conditions: literature (11); cited from earlier work
A. niger FAEB = A. niger FAEB (Aspergillus niger, UniProt Q8WZI8); conditions: literature (34); cited from earlier work
A. niger FAEB, sequence (Q8WZI8 18-521): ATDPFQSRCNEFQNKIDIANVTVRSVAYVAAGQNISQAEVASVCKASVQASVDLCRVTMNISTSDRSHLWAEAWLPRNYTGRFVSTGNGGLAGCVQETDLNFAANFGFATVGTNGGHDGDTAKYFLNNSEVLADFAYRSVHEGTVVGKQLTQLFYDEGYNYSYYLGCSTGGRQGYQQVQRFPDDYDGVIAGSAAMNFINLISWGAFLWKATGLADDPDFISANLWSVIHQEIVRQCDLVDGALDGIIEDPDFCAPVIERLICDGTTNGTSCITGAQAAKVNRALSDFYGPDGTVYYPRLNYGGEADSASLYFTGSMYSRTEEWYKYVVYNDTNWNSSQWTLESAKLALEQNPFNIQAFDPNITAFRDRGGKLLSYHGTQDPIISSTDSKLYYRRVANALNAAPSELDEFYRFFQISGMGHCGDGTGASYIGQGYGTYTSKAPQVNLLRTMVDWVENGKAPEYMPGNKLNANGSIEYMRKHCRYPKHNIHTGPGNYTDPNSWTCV

[7] = molecular target: T4, type B feruloyl esterase from N. crassa (Neurospora crassa, UniProt Q9HGR3); conditions: literature (35); cited from earlier work
T4 sequence (Q9HGR3 19-292): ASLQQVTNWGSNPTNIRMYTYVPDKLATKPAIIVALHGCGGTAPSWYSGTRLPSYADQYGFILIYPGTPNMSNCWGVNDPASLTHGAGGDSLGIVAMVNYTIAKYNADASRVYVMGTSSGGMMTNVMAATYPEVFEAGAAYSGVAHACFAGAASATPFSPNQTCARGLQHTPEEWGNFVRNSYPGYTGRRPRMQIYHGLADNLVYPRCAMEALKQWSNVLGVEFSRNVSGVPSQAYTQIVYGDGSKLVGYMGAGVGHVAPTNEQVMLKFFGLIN

AoFaeB from A. oryzae = molecular target: T5, AoFaeB from A. oryzae (Aspergillus oryzae, UniProt Q2UP89); conditions: literature (19); cited from earlier work
T5 sequence (Q2UP89 19-540): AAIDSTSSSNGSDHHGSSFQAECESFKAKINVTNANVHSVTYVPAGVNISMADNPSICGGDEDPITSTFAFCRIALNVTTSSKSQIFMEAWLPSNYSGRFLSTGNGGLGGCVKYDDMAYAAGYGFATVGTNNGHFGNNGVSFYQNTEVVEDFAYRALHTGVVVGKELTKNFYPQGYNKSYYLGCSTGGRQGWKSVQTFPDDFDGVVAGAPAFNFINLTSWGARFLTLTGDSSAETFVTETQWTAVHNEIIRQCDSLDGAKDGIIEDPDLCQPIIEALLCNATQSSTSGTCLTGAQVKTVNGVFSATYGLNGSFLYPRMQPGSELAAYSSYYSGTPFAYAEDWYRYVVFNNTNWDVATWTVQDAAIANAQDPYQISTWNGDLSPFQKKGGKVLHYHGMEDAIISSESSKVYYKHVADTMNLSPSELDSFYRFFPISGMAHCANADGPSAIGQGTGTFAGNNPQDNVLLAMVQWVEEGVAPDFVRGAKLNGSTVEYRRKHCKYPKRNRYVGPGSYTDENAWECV

[8] = test system: type B feruloyl esterases; conditions: literature; cited from earlier work

Row | SMILES | Relative esterase activity (UmChlE [1]) | Specific esterase activity (UmChlE [2]) | Specific activity (RsChlE) [U/mg] | specific activities [3] [U mg^-1] | kcat (UmChlE [4]) [s⁻¹] | Km [5] [µM] | Km [6] [µM] | Km (A. niger FAEB) [µM] | Km [7] [µM] | Km (AoFaeB from A. oryzae) [µM] | Km [8] [µM]
1 | CN(C)C=O [DMF] | 1 (0.76) % | – | – | – | – | – | – | – | – | – | –
2 | COc1cc(/C=C/C(=O)OC[C@@H]2OC(O)[C@H](O[C@@H]3OC[C@@H](O)[C@H](O)[C@H]3O)[C@H]2O)ccc1O (stereo partly drawn) [F-AX, β-D-xylopyranosyl-(1→2)-5-O-trans-feruloyl-L-arabinofuranose] | – | 1.6 U mg^-1 and 1.63 U mg^-1 | 4.97 | 5.3 | – | – | – | – | – | – | –
3 | O=C(/C=C/c1ccc(O)c(O)c1)O[C@@H]1C[C@](O)(C(=O)O)C[C@@H](O)[C@H]1O [chlorogenic acid] | – | 2.8 U mg^-1 and 2.76 U mg^-1 | 5.15 | – | 0.51 | 6.5 to 10 | 700 | 245 | 180 | 630 | –
4 | COC(=O)/C=C/c1ccc(O)c(OC)c1 [methyl ferulate] | – | 1.27 U mg^-1 | 3.19 | 14.4 | 0.38 | – | – | – | – | – | –
5 | COC(=O)/C=C/c1ccc(O)cc1 [methyl p-coumarate] | – | 1.43 U mg^-1 | 6.19 | – | 0.49 | – | – | – | – | – | 20
